Assay results published in patent US12171229B2, “Heteroaryl-triazole and heteroaryl-tetrazole compounds as pesticides” (BAYER AKTIENGESELLSCHAFT, priority 2018, dated 2024).

Key:
Format in all cases: in vivo
Myzus persicae [1] = assay: Myzus persicae spray test; settings: foliar, 120 h, after 5 days, Chinese cabbage leaf disks
Procedure: Myzus persicae—Spray Test
(§1) To produce a suitable preparation of active compound, 1 part by weight of active compound is mixed with the stated amount of solvents and is diluted with water, containing an emulsifier concentration of 1000 ppm, to the desired concentration. Further test concentrations are prepared by dilution with emulsifier containing water.
Chinese cabbage (Brassica pekinensis) leaf disks infected with all instars of the green peach aphid (Myzus persicae), are sprayed with a preparation of the active ingredient of the desired concentration.
After 5 days mortality in % is determined. 100% means all aphids have been killed and 0% means none of the aphids have been killed.

Diabrotica balteata = Diabrotica balteata spray test; settings: Diabrotica balteata, in Triticum aestivum, 168 h, after 7 days, larvae on wheat seeds, read-out: efficacy (seedlings grown up); for pest or weed control at 80 µg/disc, 250 g/ha: 80 μg/well (=250 g/ha); for pest or weed control at 160 µg/disc, 500 g/ha: 160 μg/well (=500 g/ha)
Outline: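 Germinated wheat seeds (5 per well, 1 day on agar) sprayed with compound diluted in water containing 1000 ppm emulsifier, then infested with 10–20 D. balteata larvae. Efficacy scored after 7 days: 100% = seedlings like untreated uninfested control, 0% = no seedlings grown.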

Ctenocephalides felis [2] = assay: Ctenocephalides felis oral test; settings: 48 h, 100 ppm in cattle blood, after 2 days, adult unfed cat fleas
Outline: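 About 20 unfed adult cat fleas feed through parafilm on cattle blood dosed with compound from a DMSO stock. Blood chamber at 37° C, fleas at room temperature. Percent mortality scored after 2 days.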

Myzus persicae [3] = assay: Myzus persicae oral test; settings: 120 h, 4 ppm, after 5 days
Outline: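 Aphid mortality (%) was recorded 5 days after a mixed Myzus persicae population began sucking, through parafilm, on compound solutions (acetone stock diluted with water) combined with sugar-supplemented IPL41 medium.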

[4] = test system: Anopheles funestus strain FUMOZ-R; assay: Anopheles funestus test (ANPHFU surface treatment & contact assay); settings: 24 hours after contact, read-out: efficacy (mortality); for mortality at 20 mg/m2: surface concentration 20 mg/m^2, exposure 30 minutes; for mortality at 4 mg/m2: surface concentration 4 mg/m^2, exposure 30 minutes
Procedure: Anopheles funestus Test (ANPHFU Surface Treatment & Contact Assay)
(§2) Solvent: Aceton+2000 ppm rapeseed oil methyl ester (RME)
In order to produce a sufficient, active ingredient containing solution it is necessary to solve the test compound in the solvent-mix (acetone at 2 mg/ml/RME 2000 ppm). This solution is pipetted onto a glazed tile and after evaporation of the acetone, adult mosquitoes of the species Anopheles funestus strain FUMOZ-R (Hunt et al., Med. Vet. Entomol. 2005 September; 19(3): 271-275) are placed onto the dried surface. The exposure time is 30 minutes.
(§3) Mortality in percent (%) is determined 24 hours after contact of the insects to the treated surface. 100% mortality means that all tested insects are dead, whereas 0% means that no insect died.

Boophilus microplus = Boophilus microplus injection test; settings: Rhipicephalus microplus, 168 h; 20 μg/animal injected into the abdomen; adult engorged female ticks; egg deposition after 7 days; read-out: efficacy (infertile eggs)
Outline: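 Five engorged adult female ticks received a 1 μl abdominal injection of compound in DMSO. They were then held in a climate chamber, with egg deposition checked after 7 days. Unclear eggs were kept until hatching at about 42 days, and efficacy was scored as the percentage of infertile eggs.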

[5] = test system: Culex quinquefasciatus strain P00; assay: Culex quinquefasciatus test (CULXFA surface treatment & contact assay); settings: 24 hours after contact, read-out: efficacy (mortality); for mortality at 20 mg/m2: surface concentration 20 mg/m^2, exposure 30 minutes
Procedure: Culex Quinquefasciatus Test (CULXFA Surface Treatment & Contact Assay)
as §2
In order to produce a sufficient, active ingredient containing solution it is necessary to solve the test compound in the solvent-mix (acetone at 2 mg/ml/RME 2000 ppm). This solution is pipetted onto a glazed tile and after evaporation of the acetone, adult mosquitoes of the species Culex quinquefasciatus strain P00 are placed onto the dried surface. The exposure time is 30 minutes.
as §3

Spodoptera frugiperda = Spodoptera frugiperda spray test; settings: 168 h, after 7 days, larvae on maize leaf sections
Outline: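 Maize leaf sections were sprayed with compound formulated in solvent and diluted in water containing 1000 ppm emulsifier, then infested with fall armyworm larvae after drying. Percent mortality was scored after 7 days (100% = all caterpillars dead, 0% = none).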

[6] = test system: Aedes aegypti strain MONHEIM; assay: Aedes aegypti test (AEDSAE surface treatment & contact assay); settings: 24 hours after contact, read-out: efficacy (mortality); for mortality at 20 mg/m2: surface concentration 20 mg/m^2, exposure 30 minutes; for mortality at 4 mg/m2: surface concentration 4 mg/m^2, exposure 30 minutes
Procedure: Aedes Aegypti Test (AEDSAE Surface Treatment & Contact Assay)
as §2
In order to produce a sufficient, active ingredient containing solution it is necessary to solve the test compound in the solvent-mix (acetone at 2 mg/ml/RME 2000 ppm). This solution is pipetted onto a glazed tile and after evaporation of the acetone, adult mosquitoes of the species Aedes aegypti strain MONHEIM are placed onto the dried surface. The exposure time is 30 minutes.
as §3

Nezara viridula = Nezara viridula spray test; settings: 96 h, 500 g/ha, after 4 days, larvae on barley plants
Outline: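 Barley plants infested with Nezara viridula larvae were sprayed with compound diluted in water containing 1000 ppm emulsifier. Percent mortality was scored 4 days later, where 100% means all bugs killed and 0% none.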

Ctenocephalides felis [7] = assay: Ctenocephalides felis in-vitro contact test, adult cat flea; settings: 5 μg/cm^2 (=500 g/ha), after 48 hours, adult cat fleas, read-out: efficacy (fleas dead or moribund)
Procedure: Ctenocephalides Felis—In-Vitro Contact Tests Adult Cat Flea 9 mg compound is solved in 1 ml acetone and diluted with acetone to the desired concentration. 250 μl of the test solution is filled in 25 ml glass test tubes and homogeneously distributed on the inner walls by rotation and tilting on a shaking device (2 h at 30 rpm). With a compound concentration of 900 ppm, an inner surface of 44.7 cm^2 and a homogeneous distribution, a dose of 5 μg/cm^2 is achieved. After the solvent has evaporated, each test tube is filled with 5-10 adult cat fleas (Ctenocephalides felis), closed with a perforated lid and incubated in a lying position at room temperature and relative humidity. After 48 hours efficacy is determined. The fleas are patted on the ground of the tubes and are incubated on a heating plate at 45-50° C. for at most 5 minutes. Immotile or uncoordinated moving fleas, which are not able to escape the heat by climbing upwards, are marked as dead or moribund. […] An efficacy of 100% means all fleas are dead or moribund; 0% means no fleas are dead or moribund.

Nilaparvata lugens = Nilaparvata lugens spray test; settings: 336 h, after 14 days, rice plants
Procedure: Nilaparvata lugens—Spray Test
as §1
Rice plants (Oryza sativa) are sprayed with a preparation of the active ingredient of the desired concentration and the plants are infested with the brown planthopper (Nilaparvata lugens).
After 14 days mortality in % is determined. 100% means all planthoppers have been killed and 0% means none of the planthoppers have been killed.

Compound | mortality at 100 g/ha (Myzus persicae [1]) | pest or weed control at 80 µg/disc, 250 g/ha (Diabrotica balteata) | pest or weed control at 160 µg/disc, 500 g/ha (Diabrotica balteata) | mortality at 100 ppm (Ctenocephalides felis [2]) | mortality at 4 ppm (Myzus persicae [3]) | mortality at 20 mg/m2 [4] | pest or weed control at 0.02 mg (Boophilus microplus) | mortality at 20 mg/m2 [5] | mortality at 100 g/ha (Spodoptera frugiperda) | mortality at 500 g/ha (Spodoptera frugiperda) | mortality at 20 mg/m2 [6] | mortality at 4 mg/m2 [4] | mortality at 500 g/ha (Nezara viridula) | mortality at 500 g/ha (Myzus persicae [1]) | mortality at 4 mg/m2 [6] | mortality at 4 mg/m2 ([5]; surface concentration 4 mg/m^2, exposure 30 minutes) | pest or weed control at 5 µg/cm2 (Ctenocephalides felis [7]) | mortality at 500 g/ha (Nilaparvata lugens)
C[C@H](NC(=O)c1cc(Cl)cc(C(F)(F)F)c1)c1ncnn1C1CCS(=O)(=O)C1 (single isomer, unassigned) [Example I-024] | 90% | 100% | 100% | 100% | 100% | 90 to 100% | 100% | 90 to 100% |  |  |  |  |  |  |  |  |  | 
C[C@H](NC(=O)c1cc(Cl)cc(C(F)(F)F)c1)c1ncnn1-c1ccc(SC(F)(F)F)cn1 [Example I-026, 3-chloro-5-(trifluoromethyl)-N-[(1S)-1-(1-{5-[(trifluoromethyl)sulfanyl]pyridin-2-yl}-1H-1,2,4-triazol-5-yl)ethyl]benzamide] |  | 100% | 100% | 100% |  | 90 to 100% | 100% | 90 to 100% | 100% | 100% | 90 to 100% | 85 to 100% |  |  |  |  |  | 
C[C@H](NC(=O)c1cc(Cl)cc(C(F)(F)F)c1)c1ncnn1-c1ccc(N)cn1 [Example I-030, N-{(1S)-1-[1-(5-aminopyridin-2-yl)-1H-1,2,4-triazol-5-yl]ethyl}-3-chloro-5-(trifluoromethyl)benzamide] | 90% | 100% | 80% | 100% | 100% | 90 to 100% | 100% | 90 to 100% | 83% | 100% | 90 to 100% |  | 100% |  |  |  |  | 
CC(=O)Nc1ccc(-n2ncnc2[C@H](C)NC(=O)c2cc(Cl)cc(C(F)(F)F)c2)nc1 [Example I-033] | 100% | 100% | 100% | 100% | 100% | 90 to 100% | 100% | 90 to 100% | 100% | 100% | 90 to 100% |  | 100% | 100% | 90 to 100% | 90 to 100% | 100% | 
CNC(=O)c1ccc(-n2ncnc2[C@H](C)NC(=O)c2cc(Cl)cc(C(F)(F)F)c2)nc1 [Example I-038, 6-(5-{(1S)-1-[3-chloro-5-(trifluoromethyl)benzamido]ethyl}-1H-1,2,4-triazol-1-yl)-N-methylnicotinamide] |  | 100% | 100% |  | 100% | 90 to 100% |  | 90 to 100% | 100% | 100% | 90 to 100% | 85 to 100% |  | 90% | 90 to 100% |  |  | 
C[C@H](NC(=O)c1cc(Cl)cc(C(F)(F)F)c1)c1ncnn1-c1ccc(OCC(F)(F)F)cn1 [Example I-039, 3-chloro-N-[(1S)-1-{1-[5-(2,2,2-trifluoroethoxy)pyridin-2-yl]-1H-1,2,4-triazol-5-yl}ethyl]-5-(trifluoromethyl)benzamide] |  | 100% | 100% | 100% |  |  | 100% |  | 100% | 100% |  |  |  |  | 90 to 100% |  |  | 100%
CC[C@H](NC(=O)c1cc(C(F)(F)F)cc(C(F)(F)F)c1)c1ncnn1-c1ccc([N+](=O)[O-])cn1 [Example I-069] |  |  | 100% |  |  |  | 100% |  |  | 100% |  |  |  |  |  |  |  | 70%
CC[C@H](NC(=O)c1cc(Cl)cc(OC(F)(F)F)c1)c1ncnn1-c1ccc(C#N)cn1 [Example I-070] |  |  |  | 80% |  |  | 100% |  | 100% | 100% |  |  |  |  |  |  |  | 100%
CC[C@H](NC(=O)c1cc(C(F)(F)F)cc(C(F)(F)F)c1)c1ncnn1-c1ccc(NC(=O)C2CC2)cn1 [Example I-094] |  | 100% |  | 100% |  |  |  |  |  |  |  |  | 100% |  |  |  |  | 100%
